US5792767A, “Bicyclic substituted hexahydrobenz [e] isoindole alpha-1 adrenergic antagonists” (priority 1995, dated 1998)
Counter-ions that a name gives are not always drawn.

Tests used:
[1] = target: T1, α-1B adrenoceptor (rat spleen) (Rattus norvegicus, UniProt P15823); assay: Functional antagonism of phenylephrine-induced contraction of rat spleen; format: cell-based; conditions: vs phenylephrine-induced contraction, Schild plot; for Kb: read-out: pA2 Rat Spleen [α-1B] (converted)
T1 construct: PE-induced contraction of rat spleen; from tissue; host or cells: isolated rat spleen
T1 sequence (P15823 1-515): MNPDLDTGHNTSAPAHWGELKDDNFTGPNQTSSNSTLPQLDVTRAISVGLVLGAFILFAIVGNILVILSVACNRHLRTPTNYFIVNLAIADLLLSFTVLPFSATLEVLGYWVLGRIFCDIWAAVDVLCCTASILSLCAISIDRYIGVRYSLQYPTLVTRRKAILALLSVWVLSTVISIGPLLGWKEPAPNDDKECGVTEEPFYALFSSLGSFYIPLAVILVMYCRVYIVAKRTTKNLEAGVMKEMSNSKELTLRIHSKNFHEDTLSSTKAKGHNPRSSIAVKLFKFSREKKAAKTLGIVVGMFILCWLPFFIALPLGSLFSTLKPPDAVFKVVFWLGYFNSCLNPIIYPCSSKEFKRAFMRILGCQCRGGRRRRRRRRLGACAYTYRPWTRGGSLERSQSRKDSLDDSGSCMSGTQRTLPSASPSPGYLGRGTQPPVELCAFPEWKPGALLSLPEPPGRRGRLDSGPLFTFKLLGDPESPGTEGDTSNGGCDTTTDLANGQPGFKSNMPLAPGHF
Description: (§1) Functional assays indicative of pharmacologically defined α-1 adrenoceptors were used to further characterize compounds. Inhibition of phenylephrine (PE)-induced contraction of canine prostate smooth muscle can be correlated with α-1A adrenoceptor activation. […] For each of these models, agonist dose response curves were repeated against increasing concentrations of test agent to derive a Schild plot [log ([…]) against log (molarity of test agent)] to determine the pA2.

[2] = target: T2, α-1A adrenoceptor (dog prostate); assay: Functional antagonism of phenylephrine-induced contraction of canine prostate strips; format: cell-based, dog (canine); conditions: vs phenylephrine-induced contraction, Schild plot; read-out: pA2 Dog Prostate [α-1A] (converted)
T2 construct: from tissue; host or cells: canine prostate strips
Description: Canine prostate strips were used in vitro as previously described (Hieble, J. P., Boyce, A. J. and Caine, M., Fed. Proc., 45: 2609-2614 (1986)), to determine antagonist potencies against phenylephrine-induced contractions.
as §1

[3] = target: T3, α-1A adrenoceptor (rat vas deferens) (Rattus norvegicus, UniProt P43140); assay: Functional antagonism of phenylephrine-induced contraction of rat vas deferens; format: cell-based; conditions: vs phenylephrine-induced contraction, Schild plot; read-out: pA2 Rat Vas Deferens [α-1A] (converted)
T3 construct: PE-induced contraction of rat vas deferens; from tissue; host or cells: isolated rat vas deferens
T3 sequence (P43140 1-466): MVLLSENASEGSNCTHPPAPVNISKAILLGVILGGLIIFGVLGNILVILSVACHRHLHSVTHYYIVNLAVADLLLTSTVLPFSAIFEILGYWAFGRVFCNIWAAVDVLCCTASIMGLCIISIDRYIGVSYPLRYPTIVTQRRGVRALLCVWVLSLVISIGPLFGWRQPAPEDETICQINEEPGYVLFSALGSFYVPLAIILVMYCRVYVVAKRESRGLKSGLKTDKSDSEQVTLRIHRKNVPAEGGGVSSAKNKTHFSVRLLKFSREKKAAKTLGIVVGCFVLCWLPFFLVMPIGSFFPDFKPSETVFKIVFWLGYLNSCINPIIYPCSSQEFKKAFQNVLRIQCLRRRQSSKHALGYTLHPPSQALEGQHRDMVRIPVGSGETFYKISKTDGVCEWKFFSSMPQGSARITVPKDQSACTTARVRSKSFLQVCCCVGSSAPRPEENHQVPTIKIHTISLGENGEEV
Description: as §1

T2 sequence (P35348 whole entry): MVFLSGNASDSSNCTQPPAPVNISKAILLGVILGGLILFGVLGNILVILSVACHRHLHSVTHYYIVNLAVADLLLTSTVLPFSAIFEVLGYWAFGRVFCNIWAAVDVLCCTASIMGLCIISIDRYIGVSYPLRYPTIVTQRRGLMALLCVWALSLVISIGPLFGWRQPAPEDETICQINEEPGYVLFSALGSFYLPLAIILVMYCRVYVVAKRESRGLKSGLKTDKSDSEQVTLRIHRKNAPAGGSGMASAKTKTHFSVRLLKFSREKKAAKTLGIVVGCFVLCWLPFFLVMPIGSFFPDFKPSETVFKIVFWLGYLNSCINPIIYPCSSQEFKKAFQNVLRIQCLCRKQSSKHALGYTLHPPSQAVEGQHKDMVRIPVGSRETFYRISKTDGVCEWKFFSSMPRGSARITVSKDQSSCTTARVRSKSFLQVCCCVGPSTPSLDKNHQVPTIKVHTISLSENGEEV

Structure (SMILES) | Kb [1] | Kb [2] | Kb [3] | pA2 Rat Spleen [α-1B] [1]
COc1cccc2c1CC[C@H]1CN(CCn3c(=O)[nH]c4c(C)csc4c3=O)C[C@@H]21 (relative stereo) [Example 2, hydrochloride] | 6.92 nM | 0.692 nM | 3.98 nM | –
COc1cccc2c1CC[C@H]1CN(CCn3c(=O)[nH]c4sccc4c3=O)C[C@@H]21 (relative stereo) [Example 3, hydrochloride] | 12.3 nM | 2.09 nM | 4.68 nM | –
COc1cccc2c1CC[C@H]1CN(CCn3c(=O)[nH]c4ccsc4c3=O)C[C@@H]21 (relative stereo) [Example 5, hydrochloride] | 4.37 nM | 0.692 nM | 6.46 nM | –
COc1cccc2c1CC[C@H]1CN(CCn3c(=O)[nH]c4cscc4c3=O)C[C@@H]21 (relative stereo) [Example 8, 3-[2-(cis-6-Methoxy-2,3,3a,4,5,9b-hexahydro-[1H]-benz[e]isoindol-1-yl)ethyl]-thieno[3,4d]pyrimidine-2,4(1H,3H)-dione hydrochloride] | 5.5 nM | 0.457 nM | 3.02 nM | –
COc1cccc2c1CC[C@H]1CN(CCn3c(=O)[nH]c4c(OC)cccc4c3=O)C[C@@H]21 (relative stereo) [Example 9, 3-[2-(cis-6-Methoxy-2,3,3a,4,5,9b-hexahydro-[1H]-benz[e]isoindol-1-yl)ethyl]-8-methoxy-quinazoline-2,4(1H,3H)-dione hydrochloride] | 8.91 nM | 0.407 nM | 2.4 nM | –
COc1cc2[nH]c(=O)n(CCN3C[C@@H]4CCc5c(OC)cccc5[C@@H]4C3)c(=O)c2cc1OC (relative stereo) [Example 10, hydrochloride] | 129 nM | – | – | –
COc1cccc2c1CC[C@H]1CN(CCn3c(=O)[nH]c4cccc(C)c4c3=O)C[C@@H]21 (relative stereo) [Example 12, hydrochloride] | 6.76 nM | 21.4 nM | 8.51 nM | –
COc1cc2ncn(CCN3C[C@@H]4CCc5c(OC)cccc5[C@@H]4C3)c(=O)c2cc1OC (relative stereo) [Example 33, 3-[2-(cis-6-Methoxy-2,3,3a,4,5,9b-hexahydro-[1H]-benz[e]isoindol-1-yl)ethyl]-6,7-dimethoxy-quinazoline-4(3H)-one dihydrochloride] | 20.4 nM | – | 1.12 nM | –
COc1cccc2c1CC[C@H]1CN(CCn3c(=O)[nH]c4sccc4c3=O)C[C@@H]21 [Example 13, hydrochloride] | 4.27 nM | 0.851 nM | 7.59 nM | –
COc1cc2[nH]c(=O)n(CCN3C[C@@H]4CCc5c(OC)cccc5[C@@H]4C3)c(=O)c2cc1OC [Example 39, hydrochloride] | – | – | – | 7.52
COc1cc2ncn(CCN3C[C@@H]4CCc5c(OC)cccc5[C@@H]4C3)c(=O)c2cc1OC [Example 42, dihydrochloride] | 39.8 nM | – | 5.75 nM | –
COc1cc2[nH]c(=O)n(CCCCN3C[C@@H]4CCc5cccc(OC)c5[C@@H]4C3)c(=O)c2cc1OC [Example 67, hydrochloride] | – | 4.68 nM | – | –
COC(=O)c1ccc2c(=O)n(CCN3C[C@@H]4CCc5c(OC)cccc5[C@@H]4C3)c(=O)[nH]c2c1 [Example 69, hydrochloride] | – | 0.575 nM | – | –
COc1cccc2c1CC[C@H]1CN(CCn3c(=O)[nH]c4cc(C(=O)O)ccc4c3=O)C[C@@H]21 [Example 70, hydrochloride] | – | 1.12 nM | – | –
CCOC(=O)c1ccc2c(=O)n(CCN3C[C@@H]4CCc5c(OC)cccc5[C@@H]4C3)c(=O)[nH]c2c1 [Example 71, hydrochloride] | – | 3.55 nM | – | –
COc1cccc2c1CC[C@H]1CN(CCn3c(=O)[nH]c4cc(C(=O)OC(C)C)ccc4c3=O)C[C@@H]21 [Example 73, hydrochloride] | – | 1.23 nM | – | –
COc1cccc2c1CC[C@H]1CN(CCn3c(=O)[nH]c4cc([N+](=O)[O-])ccc4c3=O)C[C@@H]21 [Example 74, hydrochloride] | – | 1.7 nM | – | –
COc1cccc2c1CC[C@H]1CN(CCn3c(=O)[nH]c4cc(NC(C)=O)ccc4c3=O)C[C@@H]21 [Example 75, 3-[2-((3aR,9bR)cis-6-Methoxy-2,3,3a,4,5,9b-hexahydro-[1H]-benz[e]isoindolyl-1-yl)ethyl]-7-acetamidoquinazoline-2,4(1H,3H)-dione hydrochloride] | – | 0.661 nM | – | –
COc1cccc2c1CC[C@H]1CN(CCn3c(=O)[nH]c4cc(NS(C)(=O)=O)ccc4c3=O)C[C@@H]21 [Example 76, 3-[2-((3aR,9bR)cis-6-Methoxy-2,3,3a,4,5,9b-hexahydro-1WH-benz[e]isoindol-1-yl)lethyl]-7-methanesulfamlquinazoline-2,4(1H,3H)-dione hydrochloride] | – | 1.86 nM | – | –
COc1cccc2c1CC[C@H]1CN(CCn3c(=O)[nH]c4c(C)c(OC)ccc4c3=O)C[C@@H]21 [Example 77, 3-[2-((3aR,9bR)cis-6-Methoxy-2,3,3a,4,59b-hexahydro-[1H]-benz[e]isoindol-1-yl)ethyl]-7-methoxy-8-methyl-quinazoline-2(1H,3H)-dione hydrochloride] | 2.95 nM | 0.398 nM | 0.479 nM | –
COc1cccc2c1CC[C@H]1CN(CCn3c(=O)[nH]c4ccccc4c3=O)C[C@@H]21 [Example 79, hydrochloride] | – | 0.977 nM | – | –
COc1cccc2c1CC[C@H]1CN(CCn3c(=O)[nH]c4c(C)c(C)ccc4c3=O)C[C@@H]21 [Example 80, 3-[2-((3aR.9bR)cis-6-Methoxy-2,3,3a,4,5,9b-hexahydro-[1H-benz[e]isoindol-1-yl)ethyl]-7.8-dimethylquinazoline-2,4(1H,3H)-dione hydrochloride] | 11.7 nM | 0.631 nM | 0.891 nM | –
CCc1cccc2c1CC[C@H]1CN(CCn3c(=O)[nH]c4cc(OC)c(OC)cc4c3=O)C[C@@H]21 [Example 83, hydrochloride] | 120 nM | 11.2 nM | 8.51 nM | –
COc1cccc2c1CC[C@H]1CN(CCn3c(=O)[nH]c4c(-c5ccccc5C)csc4c3=O)C[C@@H]21 [Example 84, hydrochloride] | – | 8.13 nM | – | –
COc1ccccc1-c1csc2c(=O)n(CCN3C[C@@H]4CCc5c(OC)cccc5[C@@H]4C3)c(=O)[nH]c12 [Example 85, 3-[2-((3aR,9bR)cis-6-Methoxy-2,3,3a,4,5,9b-hexahydro-[1H]-benz[e]isoindol-1-yl)ethyl]-7-(2-methoxyphenyl)thieno[3.2-d]pyrimidine-2,4(1H,3H)-dione hydrochloride] | – | 2.82 nM | – | –
COc1cccc2c1CC[C@H]1CN(CCn3c(=O)[nH]c4nccnc4c3=O)C[C@@H]21 [Example 87, 3-[2-((3aR,9bR)cis-6-Methoxy-2,3 3a,4,5,9b-hexahydro-[1H]-benz[e]isoindol-1-yl)ethyl]-2,4pteridinedione hydrochloride] | – | 1.29 nM | – | –
COc1cccc2c1CC[C@H]1CN(CCn3c(=O)[nH]c4ncncc4c3=O)C[C@@H]21 [Example 88, 3-[2-((3aR,9bR)cis-6-Methoxy-2,3,3a,4,5,9b-hexahydro-[1H]-benz[e]isoindol-1-yl)ethyl]-p-rimidino[4,5-d]pyrimidine-2,4(1H,3H)-dione hydrochloride] | – | 1.86 nM | – | –
